Read-outs that look alike come from different tables or passages of the source.
How the values were obtained:
[1] = system: human cancer cell line NCI-H460; test: Tumor growth inhibition, NCI-H460 tumors in BAL B/c nude mice; assay type: in vivo, human tumor cell line in BAL B/c nude mice; details: oral, 15 mg/kg, 4 days-on, 3 days-off, 20 days, 30% PEG300
Method: Six- to seven-week-old female BAL B/c nude mice were used in the human cancer cell line NCI-H460, which was derived from a lung cancer patient. Six- to seven-week-old female BAL B/c mice were used in the mouse […] cell line CT26 allograft models. 100 μL cell suspensions containing one million cells with […] (Corning, Cat. No. 354254) were implanted subcutaneously into the right flank of mice. Mice were monitored daily for well-being and weighed twice weekly. Caliper measurements of tumor sizes began when tumors became visible. Tumor volume (TV) was calculated by measuring two perpendicular diameters using the following formula: (L×W2)/2 in which L and W refer to the length and width of a tumor, respectively. When tumors reached an average size of 100 mm3, mice were first ranked according to tumor size and divided into “n” cohorts with X mice in each cohort. Each cohort was then sorted into 1 to X groups according to the random numbers size order generated by the RAND 0)function in Excel. In this way, the mice were randomized into X groups (n=4-6). Then the mice were orally administrated with vehicle (30% PEG 300) or indicated compounds at a dose volume of 5 mL/kg in a double-blinded manner. Oral administration was chosen because this is the intended route of use in the clinic. In all cases, no tumor measurement data or animals were excluded from the data analysis. Percentage of tumor growth inhibition (TGI) was calculated using the following formula: % TGI=average 100×[1−(final TV−initial TV of treatment group)/(final TV−initial TV of control group)]. As set forth in table 3 below, an values of greater than or equal to 35% and less than or equal to 45% […] is marked “C”; a value greater than 45% and less than or equal to 55% is marked “B”; a value greater than 55% and less than or equal to 70% is marked “A”; and […]

[2] = system: RPE-Neo or RPE-MYC or RPE-MYC expressing an EGFP-Histone 2B fusion protein; test: Phenotypic screening assay: arrest in mitosis, change in DNA content (polyploidy), cell death; assay type: cell-based; details: 20 nM to 20 μM, 24, 48 or 72 hours
Outline: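 Compound exposure from 20 nM to 20 μM in RPE lines (Neo, MYC, or MYC with EGFP-histone H2B), seeded 18-24 h earlier; imaging at 24, 48 or 72 h read mitotic arrest or altered DNA content, with MTT for proliferation. Results reported as A–D range categories.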

RPE-Neo or RPE-MYC cells = test: MTT assay of cellular proliferation (proliferative arrest); assay type: cell-based; details: read-out: Min. Effective conc. for Proliferative arrest (>50%)
[3] = read-out: Min. Effective conc. for Along with Cell Death
[4] = ≥5%, read-out: Min. Effective conc. for Mitotic Arrest (≥5%)
[5] = ≥5%, read-out: Min. Effective conc. for Polyploidy (≥5%)

| SMILES | TGI % [1] | minimal effective concentration [2, 3] [µM] | minimal effective concentration [2, 4] [µM] | minimal effective concentration [2, 5] [µM] | minimal effective concentration (RPE-Neo or RPE-MYC cells) [µM] |
| --- | --- | --- | --- | --- | --- |
| COc1ccc(CN2C(=O)CC(c3ncc(C)o3)=Cc3ccc(-c4cnn(CCO)c4)cc32)cc1 [Compound 36, 8-(1-(2-hydroxyethyl)-1H-pyrazol-4-yl)-1-(4-methoxybenzyl)-4-(5-methyloxazol-2-yl)-1,3-dihydro-2H-benzo[b]azepin-2-one] | A (greater than 55% and less than or equal to 70%) | 0.001 to 1 | 0.001 to 1 | 0.001 to 1 | 0.001 to 1 |
| COc1ccc(CN2C(=O)CC(c3ncc(C)o3)=Cc3ccc(-c4cnn(C5(CC#N)CN(C(=O)C6CC6)C5)c4)cc32)cc1 [Compound 90, 2-(1-(Cyclopropanecarbonyl)-3-(4-(1-(4-methoxybenzyl)-4-(5-methyloxazol-2-yl)-2-oxo-2,3-dihydro-1H-benzo[b]azepin-8-yl)-1H-pyrazol-1-yl)azetidin-3-yl)acetonitrile] |  | 0.001 to 1 | 0.001 to 1 | 0.001 to 1 | 0.001 to 1 |
| COc1ccc(CN2C(=O)CC(c3ncc(C)o3)=Cc3ccc(-c4cnn(C5(CC#N)CN(S(=O)(=O)N(C)C)C5)c4)cc32)cc1 [Compound 91, 3-(Cyanomethyl)-3-(4-(1-(4-methoxybenzyl)-4-(5-methyloxazol-2-yl)-2-oxo-2,3-dihydro-1H-benzo[b]azepin-8-yl)-1H-pyrazol-1-yl)-N,N-dimethylazetidine-1-sulfonamide] |  | 0.001 to 1 | 0.001 to 1 | 0.001 to 1 | 0.001 to 1 |
| COc1ccc(CN2C(=O)CC(c3ncc(C)o3)=Cc3ccc(-c4cnn(C5(C(N)=O)CC5)c4)cc32)cc1 [Compound 92, 1-(4-(1-(4-Methoxybenzyl)-4-(5-methyloxazol-2-yl)-2-oxo-2,3-dihydro-1H-benzo[b]azepin-8-yl)-1H-pyrazol-1-yl)cyclopropane-1-carboxamide] |  | 0.001 to 1 | 0.001 to 1 | 0.001 to 1 | 0.001 to 1 |
| COc1ccc(CN2C(=O)CC(c3nnc(C)o3)=Cc3ccc(-c4cnn(CC(C)(C)O)c4)cc32)cc1 [Compound 93, 8-(1-(2-Hydroxy-2-methylpropyl)-1H-pyrazol-4-yl)-1-(4-methoxybenzyl)-4-(5-methyl-1,3,4-oxadiazol-2-yl)-1,3-dihydro-2H-benzo[b]azepin-2-one] |  | 0.001 to 1 | 0.001 to 1 | 0.001 to 1 | 0.001 to 1 |
| COc1ccc(CN2C(=O)CC(c3nc(C4CC4)no3)=Cc3ccc(-c4cnn(CC(C)(C)O)c4)cc32)cc1 [Compound 95, 4-(3-cyclopropyl-1,2,4-oxadiazol-5-yl)-8-(1-(2-hydroxy-2-methylpropyl)-1H-pyrazol-4-yl)-1-(4-methoxybenzyl)-1,3-dihydro-2H-benzo[b]azepin-2-one] |  | 0.001 to 1 | 0.001 to 1 | 0.001 to 1 | 0.001 to 1 |
| COc1ccc(CN2C(=O)CC(c3ccon3)=Cc3ccc(-c4cnn(CC(C)(C)O)c4)cc32)cc1 [Compound 97, 8-(1-(2-Hydroxy-2-methylpropyl)-1H-pyrazol-4-yl)-4-(isoxazol-3-yl)-1-(4-methoxybenzyl)-1,3-dihydro-2H-benzo[b]azepin-2-one] |  | 0.001 to 1 | 0.001 to 1 | 0.001 to 1 | 0.001 to 1 |
| COc1ccc(CN2C(=O)CC(c3nnco3)=Cc3ccc(-c4cnn(CC(C)(C)O)c4)cc32)cc1 [Compound 98, 8-(1-(2-Hydroxy-2-methylpropyl)-1H-pyrazol-4-yl)-1-(4-methoxybenzyl)-4-(1,3,4-oxadiazol-2-yl)-1,3-dihydro-2H-benzo[b]azepin-2-one] |  | 0.001 to 1 | 0.001 to 1 | 0.001 to 1 | 0.001 to 1 |
| COc1ccc(CN2C(=O)CC(c3nc(C)no3)=Cc3ccc(-c4cnn(CC(C)(C)O)c4)cc32)cc1 [Compound 99, 8-(1-(2-Hydroxy-2-methylpropyl)-1H-pyrazol-4-yl)-1-(4-methoxybenzyl)-4-(3-methyl-1,2,4-oxadiazol-5-yl)-1,3-dihydro-2H-benzo[b]azepin-2-one] |  | 0.001 to 1 | 0.001 to 1 | 0.001 to 1 | 0.001 to 1 |
| [2H]C([2H])([2H])Oc1ccc(CN2C(=O)CC(c3ncc(C)o3)=Cc3ccc(-c4cnn(CC(C)(C)O)c4)cc32)cc1 [Compound 100, 8-(1-(2-Hydroxy-2-methylpropyl)-1H-pyrazol-4-yl)-1-(4-(methoxy-d3)benzyl)-4-(5-methyloxazol-2-yl)-1,3-dihydro-2H-benzo[b]azepin-2-one] |  | 0.001 to 1 | 0.001 to 1 | 0.001 to 1 | 0.001 to 1 |
| Cc1cnc(C2=Cc3ccc(-c4cnn(CC(C)(C)O)c4)cc3N(Cc3ccc(C)c(F)c3)C(=O)C2)o1 [Compound 101, 1-(3-fluoro-4-methylbenzyl)-8-(1-(2-hydroxy-2-methylpropyl)-1H-pyrazol-4-yl)-4-(5-methyloxazol-2-yl)-1,3-dihydro-2H-benzo[b]azepin-2-one] |  | 0.001 to 1 | 0.001 to 1 | 0.001 to 1 | 0.001 to 1 |
| COc1ccc(CN2C(=O)CC(c3ncc(C)o3)=Cc3ccc(-c4cnn(CC(C)(C)O)c4)cc32)cc1F [Compound 102, 1-(3-fluoro-4-methoxybenzyl)-8-(1-(2-hydroxy-2-methylpropyl)-1H-pyrazol-4-yl)-4-(5-methyloxazol-2-yl)-1,3-dihydro-2H-benzo[b]azepin-2-one] |  | 0.001 to 1 | 0.001 to 1 | 0.001 to 1 | 0.001 to 1 |
| COc1ccc(CN2C(=O)CC(c3ncc(C)o3)=Cc3ccc(-c4cnn(CC(C)(C)O)c4)cc32)cn1 [Compound 103, 8-(1-(2-Hydroxy-2-methylpropyl)-1H-pyrazol-4-yl)-1-((6-methoxypyridin-3-yl)methyl)-4-(5-methyloxazol-2-yl)-1,3-dihydro-2H-benzo[b]azepin-2-one] |  | 0.001 to 1 | 0.001 to 1 | 0.001 to 1 | 0.001 to 1 |
| COc1ccc(C(=O)N2CCC(c3ncc(C)o3)=Cc3ccc(-c4cnn(CC(C)(C)O)c4)cc32)cc1 [Compound 104, (8-(1-(2-Hydroxy-2-methylpropyl)-1H-pyrazol-4-yl)-4-(5-methyloxazol-2-yl)-2,3-dihydro-1H-benzo[b]azepin-1-yl) (4-methoxyphenyl)methanone] |  | 0.001 to 1 | 0.001 to 1 | 0.001 to 1 | 0.001 to 1 |
| COc1ccc(C(=O)N2CCC(c3ncc(C)o3)=Cc3ccc(-c4cnn(CC(C)(C)O)c4)cc32)cn1 [Compound 105, (8-(1-(2-Hydroxy-2-methylpropyl)-1H-pyrazol-4-yl)-4-(5-methyloxazol-2-yl)-2,3-dihydro-1H-benzo[b]azepin-1-yl)(6-methoxypyridin-3-yl)methanone] |  | 0.001 to 1 | 0.001 to 1 | 0.001 to 1 | 0.001 to 1 |
| COc1ccc(C(=O)N2CCC(c3ncc(C)o3)=Cc3ccc(-c4cnn(CC(C)(C)O)c4)cc32)cc1F [Compound 106, (3-Fluoro-4-methoxyphenyl)(8-(1-(2-hydroxy-2-methylpropyl)-1H-pyrazol-4-yl)-4-(5-methyloxazol-2-yl)-2,3-dihydro-1H-benzo[b]azepin-1-yl)methanone] |  | 0.001 to 1 | 0.001 to 1 | 0.001 to 1 | 0.001 to 1 |
| COc1ccc(CN2C(=O)CC(c3ncc(C)o3)=Cc3ccc(-c4cnn(C(C)(C)C(N)=O)c4)cc32)cc1F [Compound 107, 2-(4-(1-(3-fluoro-4-methoxybenzyl)-4-(5-methyloxazol-2-yl)-2-oxo-2,3-dihydro-1H-benzo[b]azepin-8-yl)-1H-pyrazol-1-yl)-2-methylpropanamide] |  | 0.001 to 1 | 0.001 to 1 | 0.001 to 1 | 0.001 to 1 |

From patent US20260317340A1, “COMPOUNDS, COMPOSITIONS, AND METHODS OF TREATING DISORDERS” (Chengdu Anticancer Bioscience, Ltd., priority 2023, published 2026)
